# Measured values from patent US20180008573A1, “METHODS AND COMPOSITIONS FOR REDUCING DAMAGE ASSOCIATED WITH OXIDATIVE PHOSPHORYLATION” (USANA Health Sciences, Inc., priority 2016, published 2018).
# Legend:
# C. elegans strain CB5586 = assay: C. elegans phenotypic lifespan screening (Kaplan-Meier, Log-Rank, Fisher's Exact Test); type: in vivo; conditions: for % Change in Mean Lifespan: 0.1 mg/ml vs. DMSO control; for restricted mean lifespan, # of Days: DMSO control 13.23
# Experimental: Dilutions of the test formulations were applied to individual populations of C. elegans and the lifespan of each population was monitored. Any changes in the lifespan of an individual population compared to a control population were recorded and correlated to the respective test formulation (N356 or N357) and the respective dilution (0.1 mg/ml, 1 mg/ml, and 10 mg/ml).
# The […] and N357 formulations were each prepared as individual 100 mg/ml stock solutions in dimethyl sulfoxide (DMSO). Serial dilutions of each stock solution were then prepared at 0.1 mg/ml, 1 mg/ml, and 10 mg/ml in DMSO. Control solutions of DMSO only were also prepared. Synchronous aged adult populations of C.elegans strain CB5586 worms were prepared. The CB5586 strain comprises a pharyngeal GFP (green fluorescent protein) tag and a mutation in the bus-5 gene. The pharyngeal GFP tag allows for fluorescent images of the worm populations to be taken. The mutation in the bus-5 gene causes the loss of normal cuticle antigens that permits the cuticle of the worms to become permeable to the test formulations and allow direct uptake of the test formulations to avoid interaction of the test formulations with protective mechanisms of the gut channel. Each serial dilution of each test formulation was added to a separate population of the prepared worms. The control solutions were also added to separate populations of the prepared worms. The populations of the prepared worms were then maintained on standard nematode growth media (NGM) agar plates at 20° C. with sufficient food (Escherichia coli strain OP-50).
# Each worm population was then monitored by fluorescent imaging to determine the number of living and dead worms as a function of time. The fluorescent imaging was analyzed by software that recognized and counted worms based on their fluorescent intensity compared to background fluorescence. […] The ability to distinguish between living and dead worms allowed the number of living worms and cumulative number of dead worms to be monitored against time. Worm populations from a selection of fluorescent images were manually checked to verify that the software had accurately counted the number of living and dead worms.
# The counts of the living and dead worms as a function of time were then analyzed for each of the worm populations and used to prepare Kaplan-Meier survival curves and associated statistics for each of the worm populations. […] The median lifespan is shown as the length of time after the last mitotic division that 50% of the test population remains viable when compared to the control population. The maximum lifespan extension is shown as the length of time after the last mitotic division that 5% of the test population remains viable when compared to the control population.
# The counts of the living and dead worms as a function of time and the Kaplan-Meier survival curves and the associated statistics were then analyzed for each of the worm populations. The analysis included determining mean and median lifespan. The analysis included a non-parametric test, the Log-Rank test, that compares two survival functions for the overall lifespan assay and provides a reliable p-value summarizing the whole experiment. The analysis also included Fisher's Exact Test that calculated the significance of survival function comparisons at multiple specific time points throughout the experiment, rather than for the overall lifespan. The results of the analysis are shown below in Tables 10-17.
# Phenotypic screening was carried out as described in EXAMPLE 2 for various individual compounds of the N357 formulation. […] Alpha lipoic acid was sourced from PureBulk USA as a racemic mix of R and S stereoisomers and was assigned a sample number of N198. Hesperidin was sourced from Sigma Aldrich at ≧80% purity and was assigned a sample number of N347. […]
# NF-κB reporter cells = assay: Live cell multiplex assay in the NF-κB antagonist assay; type: cell-based, human
# Experimental: A vehicle control was prepared.
# human NF-κB = assay: NF-κB antagonist reporter assay (NF-κB GRE-luciferase, HEK293 cells); type: cell-based;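 also: reporter cells carry native NF-κB receptor with firefly luciferase under upstream response elements, with a vehicle control included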
Compound,population age in days at 25% mortality (C. elegans strain CB5586; 0.1 mg/ml) [days],population age in days at 50% mortality (C. elegans strain CB5586; 0.1 mg/ml) [days],population age in days at 75% mortality (C. elegans strain CB5586; 0.1 mg/ml) [days],% Change in Mean Lifespan (C. elegans strain CB5586),"restricted mean lifespan, # of Days (C. elegans strain CB5586; 0.1 mg/ml) [days]",population age in days at 25% mortality (C. elegans strain CB5586; 10 mg/ml) [days],population age in days at 50% mortality (C. elegans strain CB5586; 10 mg/ml) [days],population age in days at 75% mortality (C. elegans strain CB5586; 10 mg/ml) [days],"restricted mean lifespan, # of Days (C. elegans strain CB5586; 10 mg/ml) [days]",further results
"C[C@@H]1O[C@@H](OC[C@H]2O[C@@H](Oc3c(-c4ccc(O)c(O)c4)oc4cc(O)cc(O)c4c3=O)[C@H](O)[C@@H](O)[C@@H]2O)[C@H](O)[C@H](O)[C@H]1O [N346, rutin hydrate]",9,11,14,−8%,12.03,11,14,16,13.43,decrease of lifespan (C. elegans strain CB5586; 0.1 mg/ml): about 9%; population age in days at 90% mortality (C. elegans strain CB5586; 0.1 mg/ml): 18 days
"COc1ccc([C@@H]2CC(=O)c3c(O)cc(O[C@@H]4O[C@H](CO[C@@H]5O[C@@H](C)[C@H](O)[C@@H](O)[C@H]5O)[C@@H](O)[C@H](O)[C@H]4O)cc3O2)cc1O [N347, hesperidin]",11,16,18,+10%,14.55,11,14,18,14.19,Statistically Significant Result (lifespan vs. DMSO control) (C. elegans strain CB5586; 0.1 mg/ml): Statistically significant increase; extension of lifespan (C. elegans strain CB5586; 0.1 mg/ml): about 10%; effect on chronological lifespan (C. elegans strain CB5586; 0.1 mg/ml and 10 mg/ml tested): significant positive and dose dependent increase of chronological lifespan; Statistically Significant Result (lifespan vs. DMSO control) (C. elegans strain CB5586; 10 mg/ml): No statistical difference
"C[C@@H]1O[C@@H](OC[C@H]2O[C@@H](Oc3c(-c4ccc(O)c(O)c4)oc4cc(O)cc(O)c4c3=O)[C@H](O)[C@@H](O)[C@@H]2O)[C@H](O)[C@H](O)[C@H]1O [Rutin, quercetin-3-O-rutinoside]",–,–,–,–,–,–,–,–,–,NF-κB % Live Cell (NF-κB reporter cells; 1.11 μg/ml active ingredient): 99%; NF-κB % Live Cell (NF-κB reporter cells; 3.3 μg/ml active ingredient): 98%; NF-κB % Live Cell (NF-κB reporter cells; 10.0 μg/ml active ingredient): 101%; NF-κB % Live Cell (NF-κB reporter cells; 30 μg/ml active ingredient): 97%; NF-κB % Inhibition (human NF-κB; 1.11 μg/ml active ingredient): 10%; NF-κB % Inhibition (human NF-κB; 3.3 μg/ml active ingredient): −2.3%; NF-κB % Inhibition (human NF-κB; 10.0 μg/ml active ingredient): −11%; NF-κB % Inhibition (human NF-κB; 30 μg/ml active ingredient): −15%
